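All cell lines were grown in 96-well plates and treated with compound for 48 hours. The concentration for 50% growth inhibition is given as GI50.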 Calls of active or inactive are those of the source. Cut-off read from the data, not from the text of the source: active = GI50 up to about 1.1 µM and inactive = higher.
Legend:
Assay in all cases: NCI tumour cell line growth inhibition, 48 h
Malme-3M = tested on: Malme-3M
SF-268 = tested on: SF-268
MDA-N = tested on: MDA-N
MCF7 = tested on: MCF7
COLO 205 = tested on: COLO 205
UACC-62 = tested on: UACC-62
OVCAR-3 = tested on: OVCAR-3
M14 = tested on: M14
OVCAR-4 = tested on: OVCAR-4
NCI-H522 = tested on: NCI-H522
HL-60 = tested on: HL-60
RXF 393 = tested on: RXF 393
SW-620 = tested on: SW-620
786-0 = tested on: 786-0
SK-MEL-5 = tested on: SK-MEL-5
SN12C = tested on: SN12C
ACHN = tested on: ACHN
DU-145 = tested on: DU-145
SK-MEL-2 = tested on: SK-MEL-2
HOP-62 = tested on: HOP-62

Clc1ccc(CSCc2ccc(Cl)cc2Cl)c(Cl)c1
GI50 (Malme-3M): 28.2 µM (inactive)
GI50 (SF-268): 71 µM (inactive)
GI50 (MDA-N): 38.8 µM (inactive)
GI50 (MCF7): 27.7 µM (inactive)
GI50 (COLO 205): 65.8 µM (inactive)
GI50 (UACC-62): 50 µM (inactive)
GI50 (OVCAR-3): 88.3 µM (inactive)
GI50 (M14): 79.8 µM (inactive)
GI50 (OVCAR-4): 36.4 µM (inactive)
GI50 (NCI-H522): 24.8 µM (inactive)
GI50 (HL-60): 39.7 µM (inactive)
GI50 (RXF 393): 20 µM (inactive)
GI50 (SW-620): 42.8 µM (inactive)
GI50 (786-0): 60.8 µM (inactive)
GI50 (SK-MEL-5): 29.9 µM (inactive)
GI50 (SN12C): > 100 µM (inactive)
GI50 (ACHN): > 100 µM (inactive)
GI50 (DU-145): 39.6 µM (inactive)
GI50 (SK-MEL-2): 21.3 µM (inactive)
GI50 (HOP-62): > 100 µM (inactive)

CS(=O)(=O)N1CC(CI)c2ccc(O)cc21 (stereo not drawn)
GI50 (Malme-3M): 1.93 µM (inactive)
GI50 (SF-268): 1.32 µM (inactive)
GI50 (MDA-N): 2.54 µM (inactive)
GI50 (MCF7): 0.925 µM (active)
GI50 (COLO 205): 2.88 µM (inactive)
GI50 (OVCAR-3): 2.89 µM (inactive)
GI50 (OVCAR-4): 1.96 µM (inactive)
GI50 (NCI-H522): 1.15 µM (inactive)
GI50 (HL-60): 1.79 µM (inactive)
GI50 (RXF 393): 1.07 µM (active)
GI50 (SW-620): 2.18 µM (inactive)
GI50 (786-0): 3.24 µM (inactive)
GI50 (SK-MEL-5): 1.43 µM (inactive)
GI50 (SN12C): 3.44 µM (inactive)
GI50 (ACHN): 2.67 µM (inactive)
GI50 (DU-145): 3.05 µM (inactive)
GI50 (SK-MEL-2): 2.1 µM (inactive)
GI50 (HOP-62): 3.02 µM (inactive)

O=S(=O)(/N=C(\NO)Nc1ccc(Cl)cc1)C1CC=C(c2ccon2)S1 (stereo not drawn)
GI50 (Malme-3M): 1.55 µM (inactive)
GI50 (SF-268): 14.7 µM (inactive)
GI50 (MDA-N): 6.04 µM (inactive)
GI50 (MCF7): 16.1 µM (inactive)
GI50 (COLO 205): 15.7 µM (inactive)
GI50 (UACC-62): 24.5 µM (inactive)
GI50 (OVCAR-3): 22.5 µM (inactive)
GI50 (M14): 29 µM (inactive)
GI50 (OVCAR-4): 3.52 µM (inactive)
GI50 (NCI-H522): 1.13 µM (inactive)
GI50 (HL-60): 1.18 µM (inactive)
GI50 (RXF 393): 6.31 µM (inactive)
GI50 (SW-620): 5.78 µM (inactive)
GI50 (786-0): 2.88 µM (inactive)
GI50 (SK-MEL-5): 20.4 µM (inactive)
GI50 (SN12C): 18.2 µM (inactive)
GI50 (ACHN): 13 µM (inactive)
GI50 (DU-145): 55.3 µM (inactive)
GI50 (SK-MEL-2): 13.3 µM (inactive)
GI50 (HOP-62): 40.5 µM (inactive)

CCOC(=O)c1nnsc1NC(=O)NN
GI50 (Malme-3M): > 100 µM (inactive)
GI50 (SF-268): > 100 µM (inactive)
GI50 (MDA-N): > 100 µM (inactive)
GI50 (MCF7): > 100 µM (inactive)
GI50 (COLO 205): > 100 µM (inactive)
GI50 (UACC-62): > 100 µM (inactive)
GI50 (OVCAR-3): > 100 µM (inactive)
GI50 (M14): > 100 µM (inactive)
GI50 (NCI-H522): > 100 µM (inactive)
GI50 (HL-60): > 100 µM (inactive)
GI50 (RXF 393): > 100 µM (inactive)
GI50 (SW-620): > 100 µM (inactive)
GI50 (786-0): 89.3 µM (inactive)
GI50 (SK-MEL-5): > 100 µM (inactive)
GI50 (SN12C): > 100 µM (inactive)
GI50 (ACHN): > 100 µM (inactive)
GI50 (DU-145): > 100 µM (inactive)
GI50 (SK-MEL-2): > 100 µM (inactive)
GI50 (HOP-62): > 100 µM (inactive)

C(/Cc1ccc2c(c1)OCO2)=N\N=C1NCCCN1
GI50 (Malme-3M): 64.4 µM (inactive)
GI50 (SF-268): 93.8 µM (inactive)
GI50 (MDA-N): > 100 µM (inactive)
GI50 (MCF7): 26.9 µM (inactive)
GI50 (COLO 205): 57 µM (inactive)
GI50 (UACC-62): > 100 µM (inactive)
GI50 (OVCAR-3): 80.2 µM (inactive)
GI50 (M14): 32.4 µM (inactive)
GI50 (OVCAR-4): 98.9 µM (inactive)
GI50 (NCI-H522): 55.3 µM (inactive)
GI50 (HL-60): 31.6 µM (inactive)
GI50 (RXF 393): 42.9 µM (inactive)
GI50 (SW-620): > 100 µM (inactive)
GI50 (786-0): 78.2 µM (inactive)
GI50 (SK-MEL-5): 25 µM (inactive)
GI50 (SN12C): 54.3 µM (inactive)
GI50 (ACHN): 28 µM (inactive)
GI50 (DU-145): 67.5 µM (inactive)
GI50 (SK-MEL-2): > 100 µM (inactive)
GI50 (HOP-62): 28.4 µM (inactive)

COc1cc2c(c(OC)c1)C(=O)O[C@H](C)CCCC/C=C/C2
GI50 (Malme-3M): 13.1 µM (inactive)
GI50 (SF-268): 8.17 µM (inactive)
GI50 (MDA-N): 8.63 µM (inactive)
GI50 (MCF7): 11.6 µM (inactive)
GI50 (COLO 205): 10.9 µM (inactive)
GI50 (UACC-62): 8.93 µM (inactive)
GI50 (OVCAR-3): 9.38 µM (inactive)
GI50 (M14): 12.7 µM (inactive)
GI50 (OVCAR-4): 12.1 µM (inactive)
GI50 (NCI-H522): 8.09 µM (inactive)
GI50 (HL-60): 0.824 µM (active)
GI50 (RXF 393): 9.95 µM (inactive)
GI50 (SW-620): 7.94 µM (inactive)
GI50 (786-0): 10.9 µM (inactive)
GI50 (SK-MEL-5): 5.71 µM (inactive)
GI50 (SN12C): 7.14 µM (inactive)
GI50 (ACHN): 12.5 µM (inactive)
GI50 (DU-145): 11.7 µM (inactive)
GI50 (SK-MEL-2): 12.1 µM (inactive)
GI50 (HOP-62): 8.15 µM (inactive)

CC1(C)CC(=O)c2c(nc(SSc3nc4c(c(-c5ccc(Br)cc5)c3C#N)C(=O)CC(C)(C)C4)c(C#N)c2-c2ccc(Br)cc2)C1
GI50 (Malme-3M): > 10 µM (inactive)
GI50 (SF-268): > 10 µM (inactive)
GI50 (MDA-N): > 10 µM (inactive)
GI50 (MCF7): > 10 µM (inactive)
GI50 (COLO 205): > 10 µM (inactive)
GI50 (OVCAR-3): > 10 µM (inactive)
GI50 (M14): > 10 µM (inactive)
GI50 (OVCAR-4): > 10 µM (inactive)
GI50 (NCI-H522): > 10 µM (inactive)
GI50 (HL-60): > 10 µM (inactive)
GI50 (RXF 393): > 10 µM (inactive)
GI50 (SW-620): > 10 µM (inactive)
GI50 (786-0): > 10 µM (inactive)
GI50 (SK-MEL-5): > 10 µM (inactive)
GI50 (SN12C): > 10 µM (inactive)
GI50 (ACHN): > 10 µM (inactive)
GI50 (DU-145): > 10 µM (inactive)
GI50 (SK-MEL-2): > 10 µM (inactive)
GI50 (HOP-62): > 10 µM (inactive)

ClC(Cl)(Cl)C1CCOC1n1nc2ccccc2n1 (stereo not drawn)
GI50 (Malme-3M): > 100 µM (inactive)
GI50 (SF-268): > 100 µM (inactive)
GI50 (MDA-N): > 100 µM (inactive)
GI50 (MCF7): > 100 µM (inactive)
GI50 (COLO 205): > 100 µM (inactive)
GI50 (UACC-62): > 100 µM (inactive)
GI50 (OVCAR-3): > 100 µM (inactive)
GI50 (M14): > 100 µM (inactive)
GI50 (OVCAR-4): > 100 µM (inactive)
GI50 (NCI-H522): > 100 µM (inactive)
GI50 (HL-60): 49.9 µM (inactive)
GI50 (RXF 393): > 100 µM (inactive)
GI50 (786-0): > 100 µM (inactive)
GI50 (SK-MEL-5): > 100 µM (inactive)
GI50 (SN12C): > 100 µM (inactive)
GI50 (DU-145): > 100 µM (inactive)
GI50 (SK-MEL-2): > 100 µM (inactive)
GI50 (HOP-62): > 100 µM (inactive)

O=c1[nH]c2ccc(CC(=S)N3CCN(c4ccccc4)CC3)cc2o1
GI50 (Malme-3M): 4.78 µM (inactive)
GI50 (SF-268): > 76.4 µM (inactive)
GI50 (MDA-N): > 49.9 µM (inactive)
GI50 (MCF7): > 100 µM (inactive)
GI50 (COLO 205): 97.7 µM (inactive)
GI50 (UACC-62): > 66.4 µM (inactive)
GI50 (OVCAR-3): > 100 µM (inactive)
GI50 (M14): > 100 µM (inactive)
GI50 (OVCAR-4): > 100 µM (inactive)
GI50 (NCI-H522): 86.7 µM (inactive)
GI50 (HL-60): 6.18 µM (inactive)
GI50 (RXF 393): > 100 µM (inactive)
GI50 (SW-620): > 100 µM (inactive)
GI50 (786-0): > 90.2 µM (inactive)
GI50 (SK-MEL-5): 48.9 µM (inactive)
GI50 (SN12C): > 100 µM (inactive)
GI50 (ACHN): > 100 µM (inactive)
GI50 (DU-145): > 100 µM (inactive)
GI50 (SK-MEL-2): > 100 µM (inactive)
GI50 (HOP-62): > 88.5 µM (inactive)

Nc1ncnc2c1ccn2CC=C(CO)CO
GI50 (Malme-3M): > 100 µM (inactive)
GI50 (SF-268): > 100 µM (inactive)
GI50 (MDA-N): > 100 µM (inactive)
GI50 (MCF7): > 100 µM (inactive)
GI50 (UACC-62): > 100 µM (inactive)
GI50 (OVCAR-3): > 100 µM (inactive)
GI50 (M14): > 100 µM (inactive)
GI50 (OVCAR-4): > 100 µM (inactive)
GI50 (NCI-H522): > 100 µM (inactive)
GI50 (HL-60): > 100 µM (inactive)
GI50 (RXF 393): > 100 µM (inactive)
GI50 (SW-620): > 100 µM (inactive)
GI50 (786-0): > 100 µM (inactive)
GI50 (SK-MEL-5): > 100 µM (inactive)
GI50 (SN12C): > 100 µM (inactive)
GI50 (ACHN): > 100 µM (inactive)
GI50 (DU-145): > 100 µM (inactive)
GI50 (SK-MEL-2): > 100 µM (inactive)
GI50 (HOP-62): > 100 µM (inactive)

Reference: ChEMBL document CHEMBL1201862, “PubChem BioAssay data set” (2004)
